{"source": "paper PMC3945637", "about": "(Frontiers in Pharmacology, 2014)", "key": {"[1]": {"molecular_target": "endogenous B2 receptor of the human umbilical vein (human (endogenous in umbilical vein)) (UniProt P30411)"}, "[2]": {"molecular_target": "human B1R (B1R-FLAG vector) (human) (UniProt P46663)", "assay": "radioligand binding; competition of 1 nM [^3H]Lys-des-Arg^9-BK binding to HEK 293a cells transiently expressing human B1R (B1R-FLAG vector); one-site competition fit"}, "human recombinant ACE [3]": {"molecular_target": "T1, human recombinant ACE (Homo sapiens, UniProt P12821)", "T1 sequence (P12821 30-1306)": "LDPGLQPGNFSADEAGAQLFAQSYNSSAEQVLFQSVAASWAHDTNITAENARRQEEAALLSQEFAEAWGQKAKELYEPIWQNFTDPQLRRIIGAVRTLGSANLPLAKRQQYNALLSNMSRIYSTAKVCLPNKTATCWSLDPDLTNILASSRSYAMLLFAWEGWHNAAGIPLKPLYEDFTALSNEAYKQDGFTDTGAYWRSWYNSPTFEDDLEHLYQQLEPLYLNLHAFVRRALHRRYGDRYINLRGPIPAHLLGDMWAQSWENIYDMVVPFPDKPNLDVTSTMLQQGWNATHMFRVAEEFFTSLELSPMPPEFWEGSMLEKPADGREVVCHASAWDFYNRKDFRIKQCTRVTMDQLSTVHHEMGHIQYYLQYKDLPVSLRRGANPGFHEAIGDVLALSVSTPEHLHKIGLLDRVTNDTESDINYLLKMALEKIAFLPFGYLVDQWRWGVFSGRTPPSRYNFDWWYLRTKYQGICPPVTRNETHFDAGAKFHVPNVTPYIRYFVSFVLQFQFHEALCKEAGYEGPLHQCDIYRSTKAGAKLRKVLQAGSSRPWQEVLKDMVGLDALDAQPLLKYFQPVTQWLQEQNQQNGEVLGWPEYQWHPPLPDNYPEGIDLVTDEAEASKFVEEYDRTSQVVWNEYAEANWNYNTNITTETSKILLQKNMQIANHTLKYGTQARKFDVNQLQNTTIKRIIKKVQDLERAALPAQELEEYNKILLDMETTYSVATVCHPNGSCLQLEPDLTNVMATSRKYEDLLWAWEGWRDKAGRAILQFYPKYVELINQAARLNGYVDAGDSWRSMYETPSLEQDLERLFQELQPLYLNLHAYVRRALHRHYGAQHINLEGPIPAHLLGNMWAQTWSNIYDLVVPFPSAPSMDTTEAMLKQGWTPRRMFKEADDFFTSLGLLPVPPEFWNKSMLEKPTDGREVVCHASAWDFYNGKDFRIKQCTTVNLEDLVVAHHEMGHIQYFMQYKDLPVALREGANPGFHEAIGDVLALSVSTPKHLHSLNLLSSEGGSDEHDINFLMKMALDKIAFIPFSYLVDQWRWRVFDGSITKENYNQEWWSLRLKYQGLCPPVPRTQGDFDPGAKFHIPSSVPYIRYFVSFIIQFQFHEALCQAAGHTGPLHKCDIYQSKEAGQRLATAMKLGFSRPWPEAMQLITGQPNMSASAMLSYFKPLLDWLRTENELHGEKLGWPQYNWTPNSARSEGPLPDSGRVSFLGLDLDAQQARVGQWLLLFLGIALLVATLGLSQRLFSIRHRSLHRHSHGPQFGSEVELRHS", "assay": "radioligand binding; competition of 2 nM [^3H]enalaprilat binding to HEK 293a cells transiently expressing human recombinant ACE by BK and analogs; one-site competition fit"}, "[4]": {"molecular_target": "rabbit B2R-green fluorescent protein (rabbit) (UniProt Q28642)", "assay": "radioligand binding; competition of 3 nM [^3H]BK binding to adherent intact HEK 293 cells stably expressing rabbit B2R-GFP by unlabeled peptides; 0 °C; peptidase inhibitors that included captopril; one-site competition fit"}, "[5]": {"molecular_target": "T2, BK B2R (human umbilical vein rings) (Homo sapiens, UniProt P30411)", "T2 construct": "from tissue; host or cells: human umbilical vein rings", "T2 sequence (P30411 1-391)": "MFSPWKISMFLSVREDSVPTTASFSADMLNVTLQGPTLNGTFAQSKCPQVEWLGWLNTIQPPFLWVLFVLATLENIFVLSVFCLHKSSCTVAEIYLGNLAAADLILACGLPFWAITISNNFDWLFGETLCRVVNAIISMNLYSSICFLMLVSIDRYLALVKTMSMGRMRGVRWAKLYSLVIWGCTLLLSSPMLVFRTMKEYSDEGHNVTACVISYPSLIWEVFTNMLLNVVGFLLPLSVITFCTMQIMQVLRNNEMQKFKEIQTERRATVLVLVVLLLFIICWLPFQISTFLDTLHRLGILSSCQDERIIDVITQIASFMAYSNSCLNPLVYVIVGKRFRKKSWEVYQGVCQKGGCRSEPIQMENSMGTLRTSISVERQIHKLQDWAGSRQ", "assay": "Human isolated umbilical vein contractility assay", "type": "cell-based", "details": "for reduction of contractile potency by Plummer's inhibitor: Plummer's inhibitor vs control tissues", "excerpt": "The institutional research ethics board (CHU de Québec) approved the anonymous use of human umbilical cord segments obtained after elective cesarean section deliveries. Informed consent was obtained from mothers. […] Tissues were used only once and discarded; controls curves were obtained from other vascular rings from the same vein.\n(§1) Results are presented as mean ± SEM. Radioligand binding data were fitted by non-linear regression to a one-site competition equation using a least-square method (Prism 4.0, GraphPad Software Inc., San Diego, CA, USA) and IC50 values calculated from this procedure. The same computer program was used to draw concentration-effect curves (least square fitting of sigmoidal dose-response equation with variable slope) and to derive contractile EC50 values. The qualitative effect of treatments on the distribution of the B2R-GFP fluorescent protein (either located at the plasma membrane or submitted to internalization) was evaluated for each HEK 293 cell in large microphotographic records and proportion of affected cells were compared using the χ^2 statistics to determine drug effect on the subcellular receptor distribution."}, "[6]": {"molecular_target": "T3, rabbit B2R-green fluorescent protein (B2R-GFP) (Oryctolagus cuniculus, UniProt Q28642)", "T3 construct": "expressed in transfected cells", "T3 sequence (Q28642 1-367)": "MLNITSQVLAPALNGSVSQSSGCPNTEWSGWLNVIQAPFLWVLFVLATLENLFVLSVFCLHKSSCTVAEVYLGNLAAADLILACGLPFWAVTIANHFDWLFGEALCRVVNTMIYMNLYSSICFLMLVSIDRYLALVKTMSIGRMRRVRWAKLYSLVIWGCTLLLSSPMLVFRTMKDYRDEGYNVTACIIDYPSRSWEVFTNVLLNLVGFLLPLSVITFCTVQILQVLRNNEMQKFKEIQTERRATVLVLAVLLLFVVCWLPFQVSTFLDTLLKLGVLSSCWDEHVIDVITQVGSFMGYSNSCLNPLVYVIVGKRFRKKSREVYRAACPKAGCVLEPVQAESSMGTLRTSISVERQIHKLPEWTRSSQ", "assay": "[3H]BK binding competition to B2R-GFP stably expressed in intact HEK 293 cells", "procedure": "(§2) Affinity for the B2R was evaluated using a radioligand binding competition assay performed at 0 °C in the presence of peptidase inhibitors that included captopril ([Houle et al., 2000]). […] Other HEK 293a cells that transiently expressed human recombinant ACE were used to perform a [^3H]enalaprilat binding assay as described ([Koumbadinga et al., 2010]; the peACE vector was a gift from Prof. P. Corvol, Paris, France).\nas §1"}, "human B1R (B1R-FLAG)": {"molecular_target": "T4, human B1R (B1R-FLAG) (Homo sapiens, UniProt P46663)", "T4 construct": "FLAG; expressed in transfected cells", "T4 sequence (P46663 1-353)": "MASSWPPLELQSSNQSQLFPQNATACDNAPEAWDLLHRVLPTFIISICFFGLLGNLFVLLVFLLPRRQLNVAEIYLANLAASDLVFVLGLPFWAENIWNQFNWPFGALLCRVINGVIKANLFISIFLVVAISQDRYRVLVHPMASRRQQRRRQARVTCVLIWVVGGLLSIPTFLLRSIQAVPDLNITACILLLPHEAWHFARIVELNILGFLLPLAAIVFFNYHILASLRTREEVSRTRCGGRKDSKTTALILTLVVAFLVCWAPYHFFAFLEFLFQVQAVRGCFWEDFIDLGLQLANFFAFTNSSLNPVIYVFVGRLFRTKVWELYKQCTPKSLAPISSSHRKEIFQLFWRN", "assay": "[3H]Lys-des-Arg9-BK binding competition to B1R-FLAG transiently expressed in HEK 293a cells"}, "human recombinant ACE [7]": {"molecular_target": "T1, human recombinant ACE", "assay": "[3H]enalaprilat binding competition to recombinant ACE transiently expressed in HEK 293a cells", "parameters": "expressed in transfected cells; host or cells: HEK 293a cells, transient expression (peACE vector, gift from Prof. P. Corvol)", "procedure": "as §2, §1"}}, "note": "Where two headings read alike, the source gives them in different places. Peptide text beside a SMILES is read from it."}
{"compound": "BK-Ala-Pro (peptide)", "values": [{"measurement": "log(EC50) of contraction of the human isolated umbilical vein, with ACE blocked by enalaprilat 1 μM, Figure 3D", "setting": "[1]", "result": -5.55, "unit": "log M"}, {"measurement": "log(IC50)", "setting": "[2]", "result": "> -5", "unit": "log M"}, {"measurement": "log(IC50)", "setting": "human recombinant ACE [3]", "result": -5.46, "unit": "log M"}, {"measurement": "log(IC50)", "setting": "[4]", "result": -5.11, "unit": "log M"}]}
{"compound": "N=C(N)NCCC[C@H](NC(=O)[C@H](Cc1ccccc1)NC(=O)[C@@H]1CCCN1C(=O)[C@H](CO)NC(=O)[C@H](Cc1ccccc1)NC(=O)CNC(=O)[C@@H]1CCCN1C(=O)[C@@H]1CCCN1C(=O)[C@@H](N)CCCNC(=N)N)C(=O)O", "note": "[BK, Bradykinin, reference compound] (H-RPPGFSPFR-OH)", "values": [{"measurement": "reduction of contractile potency by Plummer's inhibitor", "setting": "[5]", "result": "did not affect"}, {"measurement": "decrease of apparent contractile potency by ACE blockade", "setting": "[5]; enalaprilat 1 μM vs paired control tissues", "result": "not changed"}]}
{"compound": "BK-His-Leu (peptide)", "values": [{"measurement": "log(EC50) of contraction of the human isolated umbilical vein, with ACE blocked by enalaprilat 1 μM, Figure 3C", "setting": "[1]", "result": -5.34, "unit": "log M"}, {"measurement": "log(IC50)", "setting": "[2]", "result": "> -5", "unit": "log M"}, {"measurement": "log(IC50)", "setting": "human recombinant ACE [3]", "result": -5.28, "unit": "log M"}, {"measurement": "log(IC50)", "setting": "[4]", "result": -5.24, "unit": "log M"}]}
{"compound": "N=C(N)NCCC[C@H](NC(=O)[C@H](CCCNC(=N)N)NC(=O)[C@H](Cc1ccccc1)NC(=O)[C@@H]1CCCN1C(=O)[C@H](CO)NC(=O)[C@H](Cc1ccccc1)NC(=O)CNC(=O)[C@@H]1CCCN1C(=O)[C@@H]1CCCN1C(=O)[C@@H](N)CCCNC(=N)N)C(=O)O", "note": "[BK-Arg] (H-RPPGFSPFRR-OH; N-terminus and C-terminus assumed)", "values": [{"measurement": "IC50 for B2R-GFP relative to unlabeled BK (fold greater IC50 / lower affinity)", "setting": "[6]; [3H]BK binding competition, vs BK", "result": 29, "unit": "fold"}, {"measurement": "[3H]BK binding to B2R-GFP log(IC50) ± SE", "setting": "[6]; log of IC50, 3 nM [3H]BK, 0 °C, with peptidase inhibitors incl. captopril, HEK 293 cells", "result": "-6.34 ± 0.11"}, {"measurement": "IC50", "setting": "human B1R (B1R-FLAG); competition of [3H]Lys-des-Arg9-BK binding, read-out: IC50 for recombinant human B1R", "result": 7600, "unit": "nM"}, {"measurement": "[3H]Lys-des-Arg9-BK binding to B1R-FLAG log(IC50) ± SE", "setting": "human B1R (B1R-FLAG); log of IC50, 1 nM [3H]Lys-des-Arg9-BK, HEK 293a cells", "result": "-5.12 ± 0.10"}, {"measurement": "reduction of contractile potency by Plummer's inhibitor", "setting": "[5]", "result": 15, "unit": "fold"}, {"measurement": "+Peptidase inhibitor log(EC50) ± SE", "setting": "[5]; log of contractile EC50, Plummer's inhibitor 1 μM", "result": "-5.49 ± 0.07"}, {"measurement": "Control (DMSO vehicle) log(EC50) ± SE", "setting": "[5]; log of contractile EC50, no peptidase inhibitor, paired tissues", "result": "-6.67 ± 0.08"}]}
{"compound": "NC(N)=NCCC[C@H](NC(=O)[C@H](Cc1ccccc1)NC(=O)[C@@H]1CCCN1C(=O)[C@H](CO)NC(=O)[C@H](Cc1ccccc1)NC(=O)CNC(=O)[C@@H]1CCCN1C(=O)[C@@H]1CCCN1C(=O)[C@@H](N)CCCN=C(N)N)C(=O)O", "note": "[BK, Bradykinin, reference compound] (H-RPPGFSPFR-OH)", "values": [{"measurement": "IC50", "setting": "[6]", "result": 15.8, "unit": "nM"}, {"measurement": "IC50", "setting": "human B1R (B1R-FLAG)", "result": "> 10000", "unit": "nM"}, {"measurement": "IC50", "setting": "human recombinant ACE [7]", "result": 1550, "unit": "nM"}]}
{"compound": "BK-Arg (peptide)", "values": [{"measurement": "log(IC50)", "setting": "[2]", "result": -5.12, "unit": "log M"}, {"measurement": "log(IC50)", "setting": "[4]", "result": -6.34, "unit": "log M"}]}
